Test system: K562 cells
Assay: Apoptosis (AnnexinV/7-AAD) in K562 cells treated with Ara-C or ATO
Format: cell-based, human
Details: K562 transduced with empty vector; ATO 1 μM, Ara-C 0.5 μM
Procedure: K562 cells (Lozzio and Lozzio, 1979) were then transduced with viral vectors expressing f-circM9. Cells transduced only with an empty vector were used as control. F-circM9-expressing cells were sorted for a pure population and were subsequently subjected to treatment with Ara-C and ATO. […] On the contrary, clear differences were noticed in treated cells.
THP-1, K562, U937, HL-60, Kasumi and NB4 cell lines were maintained in RPMI medium supplemented with 10% FBS. MEFs Arf−/− cells were grown in DMEM supplemented with 10% FBS. Primary leukemic cells transduced with MLL/AF9 cDNA were maintained in StemSpan medium (Stem Cell Technologies) supplemented with IL6 (15 ng/ml), IL3 (15 ng/ml) TPO (50 ng/ml) and SCF (50 ng/ml) during the transduction with retroviral vectors. Cells were grown at 37° C. in a 5% CO2 humidified incubator. Fractionation of the cells to separate nucleus and cytoplasm has been performed using PARIS-kit (Ambion) following the manufacturer's instructions. The efficiency of the separation of the 2 fractions was assessed by Western blot analysis of β-actin (cytosol) and […] (nucleus). […]
Apoptotic cells were analyzed with 7AAD and Annexin-V-APC. Cells were stained for 15 minutes with both markers and then analyzed using LRSII (BD, Pharmingen).

Molecule	apoptosis upon drug treatment
Nc1ccn([C@@H]2O[C@H](CO)[C@@H](O)[C@@H]2O)c(=O)n1 [Ara-C, cytarabine]	signs of apoptosis
Arsenic trioxide [ATO]	signs of apoptosis
